Measured values published in PMC10090446, “Population pharmacokinetic analysis and dosing optimization of polymyxin B in critically ill patients” (Frontiers in Pharmacology, 2023).
Read-outs that look alike come from different tables or passages of the source. Positions of bridges follow the written chain, without caps; N, C: chain ends. Non-standard residues stand in square brackets, D forms with d. Residues, ends and D or L forms follow the SMILES beside them. *: point of attachment. X1 = CC[C@H](C)CCCCC(=O)*; Dab = NCC[C@H](N)C(=O)O

Columns and labels:
[1] = cited from earlier work
Description: TABLE 5 PPK studies of polymyxin B. | column: Estimation of population parameters || Since small samples were employed in this experiment, the non-parametric population modeling algorithm has theoretical advantages over parametric methods in detecting population PK/PD subgroups and outliers ([Goutelle et al., 2022]), so the non-parametric population modeling approach was chosen for modeling in this study. The values of CL (1.24 L h^-1) and V (16.64 L) (Table 3) in this study were in line with the ranges from previous reports, including the CL range (1.2–4.2 L h^-1) ([Sandri et al., 2013]) (Table 3) and the V range (5.63–34.4 L) (Table 5). However, the CL value was lower than t ...

[2] = Population pharmacokinetic (PPK) model, non-parametric adaptive grid (Pmetrics), critically ill patients; type: in vivo, human; conditions: for clearance: human
Description: We gather data from critically ill patients (≥18 years old) who were given intravenous drip polymyxin B treatment with blood concentration monitoring at the hospital from November 2021 to September 2022. The attending physician decided to administer polymyxin B. At the same time, patients who received continuous renal replacement therapy (CRRT) (n = 10) or extracorporeal membrane oxygenation (ECMO) (n = 2) at the time of blood collection were excluded. Patients’ information, including gender, age, WT, serum creatinine (Scr), CCR, ALB, APACHE-II, infection diagnosis, and pathogenic bacteria, were obtained from the electronic system for medical records. CCR was generated by adopting the Cockcroft—Gault equation with WT and age ([Cucci et al., 2022]). The Ethical Committees of the Second Affiliated Hospital of the South China University of Technology authorized the study (K-2022-020-01).
Patients were treated with polymyxin B, and plasma samples were collected ≥ 48 h after the treatment. Each patient contributed clinical samples, of which 37.5% (n = 24) were sampled with troughs (within 1 h before administration), 35.9% (n = 23) were sampled with peaks (within 1 h after the end of the infusion), and 26.6% (n = 17) were sampled at 6-8 h after the infusion. The dosing regimens of polymyxin B were a loading dose of 100 mg–150 mg and a maintenance dose of 50 mg–75 mg q12h, and the infusion duration was about 1–2 h. In preparation for analysis, samples were centrifuged for 10 min at 3000 r min^-1 after collection, and the upper plasma after centrifugation was stored at −20°C.
According to previous studies, total polymyxin B1, polymyxin B2, and polymyxin B1-Ile concentrations in human blood plasma were quantified using LC-MS/MS ([Meng et al., 2016]; [Hee et al., 2017]). The standard used in our experiments was the USP standard with the batch number of R104F0. The chromatographic column was the Kinetex C18 (3 μm × 2.1 mm×100 mm. Phenomenex). A: B mobile phase was 0.1% formic acid to acetonitrile. With changes in the linear velocity ratio, gradient elution was as follows: 15% −15% B, 0–2.0 min; 15%–10% B, 2.01–4.0 min; 10%–30% B, 4.01–5.0 min; 15% B, 5.01 min; and 15%–15% B, 5.02–10 min. The flow rate was constrained to 0.8 mL min^-1, and the column temperature was set to 40°C. The parent/daughter ion mass ratios used in the mass spectrometry were m/z 602.6/241.2 (polymyxin B1 and B1-Ile) and m/z 595.6/202.1 (polymyxin B2). Plasma samples (100 μL) were collected from centrifuged blood samples, mixed with 500 μL precipitant (acetonitrile with 6.67% formic acid) and vortexed well for 1 min. The lower limit of quantification (LLOQ) of the bioanalytical method used for quantifying polymyxin B1, B2, and B1-Ile concentrations was 0.19, 0.02 and 0.02 mg L^-1, respectively. The linear relationships of polymyxin B1, B2, and B1-Ile concentrations in the range of 0.19–24.13 mg L^-1, 0.02–2.7 mg L^-1 and 0.02–2.38 mg L^-1 were considered good (R^2 = 0.99677, R^2 = 0.99656, R^2 = 0.99484) and the accuracy was within 95.3%–105.3%, 92.2%–104.8%, and 95.8%–105.4%. […] Finally, 200 μL of the supernatant from the centrifugation of the combination at 14,000 r min^-1 for 10 min was employed to measure the amounts of polymyxin B.
In order to analyze the total concentrations of polymyxin B, Pmetrics version 1.9.7 (Laboratory of Applied Pharmacokinetics and Bioinformatics, Los Angeles, CA) was used by R version 4.1.3 ([Neely et al., 2012]). PK parameters were evaluated by a one-compartment model and a two-compartment model. The multiplicative error model (SD ×gamma), which requires the observation concentration values to be weighted by the reciprocal of the error, was used to calculate the error structure model. Gamma is the process noise that results from incorrectly specified sampling time, dosage, etc. […]

[3] = Acutely ill patients, n = 52, two-compartment model, ref Miglis et al. (2018)
[4] = Critically ill patients with CVVH, n = 53, two-compartment model, ref Wang et al. (2022)
[5] = Critically ill patients with/without CRRT, n = 53, two-compartment model, ref Luo et al. (2022)
[6] = Critically ill patients, n = 24, two-compartment model, ref Sandri et al. (2013)
[7] = Health Volunteers, n = 20, three-compartment model, ref Liu et al. (2021)
[8] = Patients with MDR-GNB infections, n = 46, two-compartment model, ref Wang et al. (2020)
[9] = Patients with/without ECMO, n = 13, non-compartment model, ref Surovoy et al. (2022)
[10] = data splitting, 20% of the data
[11] = data splitting, 80% of the data
[12] = final model 6, bootstrap, median
[13] = final model 6, full data set, 22 critically ill patients, iv, mean
[14] = final model 6, full data set, median

Compound: CC[C@H](C)CCCCC(=O)N[C@@H](CCN)C(=O)N[C@H](C(=O)N[C@@H](CCN)C(=O)N[C@H]1CCNC(=O)[C@H]([C@@H](C)O)NC(=O)[C@H](CCN)NC(=O)[C@H](CCN)NC(=O)[C@H](CC(C)C)NC(=O)[C@@H](Cc2ccccc2)NC(=O)[C@H](CCN)NC1=O)[C@@H](C)O [polymyxin B] (X1-[Dab]T[Dab][Dab][Dab][dF]L[Dab][Dab]T; lactam 4-C)
- CL ([1]; Acutely ill patients, n = 52, 156 samples, two-compartment model, ref Miglis et al. (2018)): 2.63 L/h
- Q [1, 3]: 2.32 L/h
- V1 [1, 3]: 33.8 L
- V2 [1, 3]: 78.2 L
- CL ([1]; Clinical Samples, n = 43, 134 samples, one-compartment model, ref Kubin et al. (2018)): 2.37 L/h
- V ([1]; Clinical Samples, n = 43, one-compartment model, ref Kubin et al. (2018)): 34.4 L
- CLCRRT ([1]; Critically ill patients undergoing CRRT, n = 53 with/without CRRT, two-compartment model, ref Luo et al. (2022)): 1.95 L/h
- CL ([1]; Critically ill patients with CVVH, n = 53, 275 samples, two-compartment model, ref Wang et al. (2022)): 1.95 L/h
- CLCVVH [1, 4]: 4.52 L/h
- Q [1, 4]: 2.28 L/h
- V [1, 4]: 15.0 L
- V2 [1, 4]: 6.54 L
- CLwithoutCRRT ([1]; Critically ill patients with/without CRRT, n = 53, 189 samples, two-compartment model, ref Luo et al. (2022)): 1.5 L/h
- Q [1, 5]: 1.34 L/h
- V [1, 5]: 11.7 L
- V2 [1, 5]: 17.9 L
- CL ([1]; Critically ill patients, n = 24, 100 samples, two-compartment model, ref Sandri et al. (2013)): 1.66 L/h
- Q [1, 6]: 8.76 L/h
- V1 [1, 6]: 5.63 L
- V2 [1, 6]: 19.8 L
- CL [1, 7]: 1.62 L/h
- Q2 [1, 7]: 8.4 L/h
- Q3 [1, 7]: 0.384 L/h
- V [1, 7]: 4.26 L
- V2 [1, 7]: 3.66 L
- V3 [1, 7]: 2.7 L
- CL ([1]; Individuals with severe infections, n = 35, 139 samples, one-compartment model, ref Manchandani et al. (2018)): 2.5 L/h
- V ([1]; Individuals with severe infections, n = 35, one-compartment model, ref Manchandani et al. (2018)): 34.3 L
- CL ([1]; Patients with MDR-GNB infections, n = 46, 331 samples, two-compartment model, ref Wang et al. (2020)): 1.786 L/h
- Q [1, 8]: 13.518 L/h
- V1 [1, 8]: 6.218 L
- V2 [1, 8]: 11.922 L
- CL ([1]; Patients with TDM, n = 32, 112 samples, one-compartment model, ref Yu et al. (2021)): 1.59 L/h
- V ([1]; Patients with TDM, n = 32, one-compartment model, ref Yu et al. (2021)): 20.5 L
- CL [1, 9]: 1.16 L/h
- V [1, 9]: 19.73 L
- CL ([1]; Renal transplant patients, n = 50, 151 samples, one-compartment model, ref Li et al. (2021)): 1.18 L/h
- V ([1]; Renal transplant patients, n = 50, one-compartment model, ref Li et al. (2021)): 12.09 L
- Q, mean value [2, 10]: 2.56 L/h
- Vc, mean value [2, 10]: 13.58 L
- Vp, mean value [2, 10]: 64.60 L
- Q, mean value [2, 11]: 3.44 L/h
- Vc, mean value [2, 11]: 17.82 L
- Vp, mean value [2, 11]: 40.26 L
- CL, bootstrap median [2, 12]: 1.22 L/h
- Q, bootstrap median [2, 12]: 2.31 L/h
- Vc, bootstrap median [2, 12]: 17.15 L
- Vp, bootstrap median [2, 12]: 66.34 L
- Q, mean [2, 13]: 3.04 L/h
- Vc, mean [2, 13]: 16.64 ± 12.74 L
- Vp, mean [2, 13]: 66.20 L
- Q, median [2, 14]: 2.34 L/h
- Vc, median [2, 14]: 13.52 L
- Vp, median [2, 14]: 76.53 L
- clearance ([2]; plasma, iv, data splitting, 20% of the data, read-out: CL, mean value (converted)): 21.8 mL/min
- clearance ([2]; plasma, iv, data splitting, 80% of the data, read-out: CL, mean value (converted)): 22.5 mL/min
- clearance ([2]; plasma, iv, final model 6, full data set, 22 critically ill patients, iv, median, read-out: CL, median (converted)): 20.3 mL/min
- clearance ([2]; final model 6 (two-compartment, covariates age and ALB), full data set, 22 critically ill patients, 64 samples, iv infusion, steady state, total plasma concentration, LC-MS/MS, NPAG, mean, read-out: CL, mean (converted)): 20.7 mL/min
